Results as given in US11673866B2, “Estrogen receptor beta ligands for the prevention and treatment of multiple sclerosis (MS) and other demyelinating, inflammatory and neurodegenerative diseases” (The Board of Trustees of the University of Illinois, priority 2018, dated 2023).
“Also recorded” adds a separate entry of the source. Values belong to the molecule of their own block, whether it stands above or below them.

Legend:
[1] = system: primary oligodendrocyte and oligodendrocyte precursor cells (OL/OPCs); experiment: Primary OPC culture differentiation (MBP immunostaining, DAPI); assay type: cell-based, mouse; set-up: key to %MBP+/DAPI: *: The level of production of myelin basic protein (MBP); ---: reduction of MBP; conditions: for MBP+/DAPI ratio (OPC differentiation): FIG. 10B; for %MBP+/DAPI: level of production of myelin basic protein in primary OPC/OL cultures
Experimental: Primary OPC Cultures: Primary OPCs, isolated from postnatal day P1 C57BL/6 male and female mouse cortices as described previously, were treated with 10 nM ligands in differentiating medium for 3 days (Tiwari-Woodruff et al., 2001; Tiwari-Woodruff et al., 2006). Primary OPC were cultured into 8-well chamber slides (three wells per condition, 2.5×10^5 cells/well) for three days to attach and […] in differentiating media (consisting of DMEM-F12 with triiodothyronine- and thyroxine-containing Sato as well as penicillin, streptomycin, insulin, N-acetyl-L-cysteine, forskolin, ciliary neurotrophic factor, neurotrophin-3, and platelet-derived growth factor receptor α (Tiwari-Woodruff et al., 2001)). A positive control (IndCl), a negative control (Vehicle consisting of the media+EtOH mixture used to dissolve IndCl), and a normal control (differentiating media alone) were used for comparison. At the end of the treatment period, cells were fixed, stained by immunocytochemistry (primary antibody polyclonal chicken myelin basic protein (MBP, Millipore AB9348), shown in green and co-stained with nuclear stain—DAPI shown in blue), and imaged with an Olympus BX61 confocal microscope (Olympus America Inc., Center Valley, Pa.) at 10× magnification (3 images per well). Cells were counted using the ImageJ multipoint tool, and counts were then divided by the image area (mm^2). Average cell density for each condition was then divided by the normal condition cell density. Analysis of OL differentiation consisted of counting the number of MBP+ cells and process extensions that were longer than the respective cell-body diameter and tracking the number of highly branched MBP+ cells (with three or more processes) (Monnerie et al., 2017). Statistics were performed using GraphPad Prism 6 Software (La Jolla, Calif.). One-way ANOVA with Tukey's posthoc test for multiple comparisons was used to generate p-values, and data are presented as mean SEM (with α≤0.05).
Primary OPC cultures were used as a convenient cell-based assay to characterize the proliferation and/or differentiation effects of the new IndCl analogues and to select those most suitable for more extensive studies to be done in comparison with the parental ligand, IndCl. 48 hours after plating OPCs, one of seven IndCl analogues (FIG. 1A) was added to differentiating media at a concentration of 10 nM (De Angelis et al., 2005; Saijo et al., 2011). OPCs were allowed to differentiate for 3 days in the presence of IndCl or analogues, at which point they were fixed, immunostained for OPC/OL markers, and quantified. […] The total number of cells in culture was not altered by any treatment (FIGS. 1B and 1D).

ERβ = ERβ (Homo sapiens, UniProt Q92731); experiment: Relative binding affinity (RBA) to estrogen receptor beta, radiometric measurement; conditions: for β/α Ratio: ratio of RBA ERβ to RBA ERα; for RBA ERβ: relative value to 100% for E2 by radiometric measurement
ERβ, sequence (Q92731 whole entry, species assumed): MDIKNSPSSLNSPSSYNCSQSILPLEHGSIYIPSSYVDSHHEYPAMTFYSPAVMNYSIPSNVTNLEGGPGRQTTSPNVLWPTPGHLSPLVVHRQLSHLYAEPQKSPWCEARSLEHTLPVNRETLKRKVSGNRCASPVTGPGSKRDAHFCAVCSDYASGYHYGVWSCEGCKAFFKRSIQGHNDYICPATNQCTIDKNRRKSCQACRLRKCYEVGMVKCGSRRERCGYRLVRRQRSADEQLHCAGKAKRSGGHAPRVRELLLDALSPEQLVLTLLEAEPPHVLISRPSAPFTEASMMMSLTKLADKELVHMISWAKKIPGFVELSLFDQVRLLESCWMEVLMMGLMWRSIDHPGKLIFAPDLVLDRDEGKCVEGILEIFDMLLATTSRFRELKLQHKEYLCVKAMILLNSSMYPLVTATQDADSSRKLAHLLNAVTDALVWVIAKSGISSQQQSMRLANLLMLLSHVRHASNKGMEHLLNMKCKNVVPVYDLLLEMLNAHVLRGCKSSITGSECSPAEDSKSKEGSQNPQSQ

ERα = target: T1, ERα (Homo sapiens, UniProt P03372); experiment: Relative binding affinity (RBA) to estrogen receptor alpha, radiometric measurement; conditions: relative value to 100% for E2 by radiometric measurement
T1 sequence (P03372 1-595): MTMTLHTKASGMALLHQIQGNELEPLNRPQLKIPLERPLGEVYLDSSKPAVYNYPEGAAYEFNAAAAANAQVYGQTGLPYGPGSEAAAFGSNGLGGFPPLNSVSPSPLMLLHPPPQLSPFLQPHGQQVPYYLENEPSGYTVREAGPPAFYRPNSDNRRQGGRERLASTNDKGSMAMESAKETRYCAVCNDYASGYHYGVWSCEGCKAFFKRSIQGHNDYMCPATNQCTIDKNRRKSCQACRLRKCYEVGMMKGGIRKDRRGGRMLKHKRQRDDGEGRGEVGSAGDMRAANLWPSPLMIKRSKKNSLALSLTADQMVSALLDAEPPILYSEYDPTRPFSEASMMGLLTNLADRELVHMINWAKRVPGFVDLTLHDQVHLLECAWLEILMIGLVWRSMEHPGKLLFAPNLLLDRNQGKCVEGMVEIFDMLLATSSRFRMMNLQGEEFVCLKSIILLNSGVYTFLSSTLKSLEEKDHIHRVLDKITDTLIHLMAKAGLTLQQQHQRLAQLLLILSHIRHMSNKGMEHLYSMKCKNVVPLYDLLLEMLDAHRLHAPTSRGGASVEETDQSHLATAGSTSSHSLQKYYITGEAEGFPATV

Compound: Oc1cc(F)c(-n2nc3ccc(O)c(Cl)c3c2Cl)c(F)c1 [IndCl-o-F2-4-Cl, 3,4-dichloro-2-(2,6-difluoro-4-hydroxyphenyl)-2H-indazol-5-ol]
- MBP+/DAPI ratio (OPC differentiation) [1]: greatest increase
- β/α Ratio (ERβ): 3.6
- RBA ERβ (ERβ): 0.28%
- RBA ERα (ERα): 0.076%

Compound: C=CCc1c2cc(O)ccc2nn1-c1ccc(O)cc1Br [Ind-allyl-o-Br, 3-allyl-2-(2-bromo-4-hydroxyphenyl)-2H-indazol-5-ol]
- β/α Ratio (ERβ): 2.5
- RBA ERβ (ERβ): 0.86%
- RBA ERα (ERα): 0.34%

Compound: Oc1ccc(-n2nc3ccc(O)cc3c2Cl)c(C2SCCS2)c1 [IndCl-o-Thiolane, 2-(2-(1,3-dithiolan-2-yl)-4-hydroxyphenyl)-3-chloro-2H-indazol-5-ol]
- β/α Ratio (ERβ): 13.0
- RBA ERβ (ERβ): 2.34%
- RBA ERα (ERα): 0.18%

Compound: Oc1ccc(-n2nc3ccc(O)cc3c2Br)c(Br)c1 [IndBr-o-Br, 3-bromo-2-(2-bromo-4-hydroxyphenyl)-2H-indazol-5-ol]
- %MBP+/DAPI [1]: *
- β/α Ratio (ERβ): 4.2
- RBA ERβ (ERβ): 5.84%
- RBA ERα (ERα): 1.40%

Compound: C=Cc1c2cc(O)ccc2nn1-c1ccc(O)cc1Br [Ind-vinyl-o-Br, 2-(2-bromo-4-hydroxyphenyl)-3-vinyl-2H-indazol-5-ol]
- β/α Ratio (ERβ): 14.9
- RBA ERβ (ERβ): 8.04%
- RBA ERα (ERα): 0.54%

Compound: Oc1ccc(-n2nc3ccc(O)c(Cl)c3c2Cl)c(Cl)c1 [IndCl-o-Cl-4-Cl, 2-(2-chloro-4-hydroxyphenyl)-3,4-dichloro-2H-indazol-5-ol]
- %MBP+/DAPI [1]: *
- β/α Ratio (ERβ): 0.46
- RBA ERβ (ERβ): 0.73%
- RBA ERα (ERα): 0.33%

Compound: Oc1cc(F)c(-n2cc3cc(O)ccc3n2)c(F)c1 [IndH-o-F2, 2-(2,6-difluoro-4-hydroxyphenyl)-2H-indazol-5-ol]
- β/α Ratio (ERβ): 2.0
- RBA ERβ (ERβ): 0.06%
- RBA ERα (ERα): 0.03%

Compound: Oc1ccc(-n2nc3ccc(O)cc3c2C2SCCS2)cc1 [Ind-Thiolane, 3-(1,3-dithiolan-2-yl)-2-(4-hydroxyphenyl)-2H-indazol-5-ol]
- β/α Ratio (ERβ): 10.3
- RBA ERβ (ERβ): 0.31%
- RBA ERα (ERα): 0.03%

Compound: Oc1ccc(-n2nc3ccc(O)cc3c2I)c(Br)c1 [IndI-o-Br, 2-(2-bromo-4-hydroxyphenyl)-3-iodo-2H-indazol-5-ol]
- β/α Ratio (ERβ): 5.3
- RBA ERβ (ERβ): 6.64%
- RBA ERα (ERα): 1.25%

Compound: Oc1cc(Cl)c(-n2cc3cc(O)ccc3n2)c(Cl)c1 [IndH-o-Cl2, 2-(2,6-dichloro-4-hydroxyphenyl)-2H-indazol-5-ol]
- β/α Ratio (ERβ): 9.3
- RBA ERβ (ERβ): 0.82%
- RBA ERα (ERα): 0.088%

Compound: Oc1ccc(-n2nc3ccc(O)cc3c2I)c(I)c1 [IndI-o-I, 2-(4-hydroxy-2-iodophenyl)-3-iodo-2H-indazol-5-ol]
- β/α Ratio (ERβ): 6.7
- RBA ERβ (ERβ): 2.5%
- RBA ERα (ERα): 0.37%

Compound: Oc1ccc(-n2nc3ccc(O)cc3c2Br)c(I)c1 [IndBr-o-I, 3-bromo-2-(4-hydroxy-2-iodophenyl)-2H-indazol-5-ol]
- β/α Ratio (ERβ): 12.8
- RBA ERβ (ERβ): 6.28%
- RBA ERα (ERα): 0.49%

Compound: Oc1cc(Cl)c(-n2nc3ccc(O)c(Cl)c3c2Cl)c(Cl)c1 [IndCl-o-Cl2-4-Cl, 3,4-dichloro-2-(2,6-dichloro-4-hydroxyphenyl)-2H-indazol-5-ol]
- β/α Ratio (ERβ): 21.1
- RBA ERβ (ERβ): 2.3%
- RBA ERα (ERα): 0.11%

Compound: Oc1ccc(-n2nc3ccc(O)cc3c2F)c(I)c1 [IndF-o-I, 3-fluoro-2-(4-hydroxy-2-iodophenyl)-2H-indazol-5-ol]
- β/α Ratio (ERβ): 2.3
- RBA ERβ (ERβ): 0.61%
- RBA ERα (ERα): 0.27%

Compound: Oc1ccc(-c2c3cc(O)ccc3nn2-c2ccc(O)cc2)cc1 [Ind-Ph-p-OH, 4,4′-(5-hydroxy-2H-indazole-2,3-diyl)diphenol]
- β/α Ratio (ERβ): 7.8
- RBA ERβ (ERβ): 0.63%
- RBA ERα (ERα): 0.08%

Now from value to molecule, other results behind:

- β/α Ratio (ERβ): 19.9
- RBA ERβ (ERβ): 16.12%
- RBA ERα (ERα): 0.81%
Compound: Oc1ccc(-n2nc3ccc(O)cc3c2Br)c(Cl)c1 [IndBr-o-Cl, 3-bromo-2-(2-chloro-4-hydroxyphenyl)-2H-indazol-5-ol]

- β/α Ratio (ERβ): 3.7
- RBA ERβ (ERβ): 10.39%
- RBA ERα (ERα): 2.84%
Compound: Oc1ccc(-n2nc3ccc(O)cc3c2Cl)c(C(F)(F)F)c1 [IndCl-o-CF3, 3-chloro-2-(4-hydroxy-2-(trifluoromethyl)phenyl)-2H-indazol-5-ol]

- β/α Ratio (ERβ): 5.8
- RBA ERβ (ERβ): 0.74%
- RBA ERα (ERα): 0.13%
Compound: Cc1cc(-n2nc3ccc(O)cc3c2Cl)ccc1O [IndCl-m-Me, 3-chloro-2-(4-hydroxy-3-methylphenyl)-2H-indazol-5-ol]

- β/α Ratio (ERβ): 48.2
- RBA ERβ (ERβ): 2.99%
- RBA ERα (ERα): 0.062%
Compound: Oc1ccc(-n2nc3ccc(O)cc3c2Cl)c(O)c1 [IndCl-o-OH, 4-(3-chloro-5-hydroxy-2H-indazol-2-yl)benzene-1,3-diol]
- MBP+/DAPI ratio (OPC differentiation) [1]: greatest increase

- β/α Ratio (ERβ): 18.0
- RBA ERβ (ERβ): 2.34%
- RBA ERα (ERα): 0.13%
Compound: OCc1cc(O)ccc1-n1nc2ccc(O)cc2c1Cl [IndCl-o-CH2OH, 3-chloro-2-(4-hydroxy-2-(hydroxymethyl)phenyl)-2H-indazol-5-ol]

- β/α Ratio (ERβ): 10.5
- RBA ERβ (ERβ): 4.93%
- RBA ERα (ERα): 0.47%
Compound: Oc1ccc(-n2nc3ccc(O)cc3c2I)c(Cl)c1 [IndI-o-Cl, 2-(2-chloro-4-hydroxyphenyl)-3-iodo-2H-indazol-5-ol]

- β/α Ratio (ERβ): 75.7
- RBA ERβ (ERβ): 10.5%
- RBA ERα (ERα): 0.14%
Compound: Oc1ccc2nn(-c3ccc(O)c(F)c3)c(Cl)c2c1 [IndCl-m-F, 3-chloro-2-(3-fluoro-4-hydroxyphenyl)-2H-indazol-5-ol]

- β/α Ratio (ERβ): 17.9
- RBA ERβ (ERβ): 8.31%
- RBA ERα (ERα): 0.47%
Compound: Oc1ccc(-n2nc3ccc(O)cc3c2Cl)c(Br)c1 [IndCl-o-Br, 2-(2-bromo-4-hydroxyphenyl)-3-chloro-2H-indazol-5-ol]
- %MBP+/DAPI [1]: *

- β/α Ratio (ERβ): 35.8
- RBA ERβ (ERβ): 1.43%
- RBA ERα (ERα): 0.04%
Compound: OCc1c2cc(O)ccc2nn1-c1ccc(O)cc1 [Ind-CH2OH, 3-(hydroxymethyl)-2-(4-hydroxyphenyl)-2H-indazol-5-ol]

- β/α Ratio (ERβ): 7.0
- RBA ERβ (ERβ): 9.64%
- RBA ERα (ERα): 1.38%
Compound: Cc1cc(O)ccc1-n1nc2ccc(O)cc2c1I [IndI-o-Me, 2-(4-hydroxy-2-methylphenyl)-3-iodo-2H-indazol-5-ol]

- β/α Ratio (ERβ): 15.7
- RBA ERβ (ERβ): 5.38%
- RBA ERα (ERα): 0.34%
Compound: Oc1ccc(-n2nc3ccc(O)cc3c2Cl)c(I)c1 [IndCl-o-I, 2-(2-iodo-4-hydroxyphenyl)-3-chloro-2H-indazol-5-ol]
- number of MBP+ OLs (differentiated OLs) ([1]; 10 nM, 3 days in differentiating media, vs vehicle-treated cells): significant increase; also recorded: significantly increased
- branched OLs / complex branching cells ([1]; 10 nM, vs vehicle-treated cells): increase in the percentage of branched OLs

- β/α Ratio (ERβ): 4.0
- RBA ERβ (ERβ): 1.09%
- RBA ERα (ERα): 0.27%
Compound: Oc1ccc(-n2nc3ccc(O)cc3c2F)c(Cl)c1 [IndF-o-Cl, 2-(2-chloro-4-hydroxyphenyl)-3-fluoro-2H-indazol-5-ol]

- β/α Ratio (ERβ): 52.4
- RBA ERβ (ERβ): 9.79%
- RBA ERα (ERα): 0.19%
Compound: Oc1ccc(-n2nc3ccc(O)cc3c2Cl)c(F)c1 [IndCl-o-F, 3-chloro-2-(2-fluoro-4-hydroxyphenyl)-2H-indazol-5-ol]
